Measured values: the supplement of paper PMC12494721

Tests used:
Conditions in all cases: incubation time: 27 h, anaerobic, 37 °C
[1] = system: Ruminococcus gnavus DSM 108212; test: fold change of 2-Phenylethylamine concentration vs plate DMSO controls (fold change (ratio)); higher = more amine produced
[2] = system: Klebsiella aerogenes DSM 30053; test: fold change of Histamine concentration vs plate DMSO controls (fold change (ratio)); higher = more amine produced
Method: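 Dose-response follow-up: bacteria (E. coli IAI1, K. aerogenes DSM 30053, C. sporogenes DSM 1664, R. gnavus DSM 108212) were grown anaerobically in mGAM at 37 °C for 27 h with compound at 0.6125-20 µM. Amines were measured in the whole culture by targeted LC-MS/MS. Metabolite fold change and OD595 fold change are relative to plate DMSO controls; n=2 biological replicates. OD fold changes are not clipped, so slightly negative values mean no growth.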

[3] = system: Klebsiella aerogenes DSM 30053; test: fold change of Cadaverine concentration vs plate DMSO controls (fold change (ratio)); higher = more amine produced
[4] = system: Ruminococcus gnavus DSM 108212; test: fold change of Tryptamine concentration vs plate DMSO controls (fold change (ratio)); higher = more amine produced
[5] = system: Ruminococcus gnavus DSM 108212; test: growth (OD595) fold change vs plate DMSO controls (fold change (ratio)); higher = more growth
[6] = system: Klebsiella aerogenes DSM 30053; test: as above
[7] = system: Klebsiella aerogenes DSM 30053; test: fold change of Putrescine concentration vs plate DMSO controls (fold change (ratio)); higher = more amine produced
[8] = system: Clostridium sporogenes DSM 1664; test: fold change of Tryptamine concentration vs plate DMSO controls (fold change (ratio)); higher = more amine produced
[9] = system: Clostridium sporogenes DSM 1664; test: growth (OD595) fold change vs plate DMSO controls (fold change (ratio)); higher = more growth

C[C@@H](O)[C@H]1C(=O)N2C(C(=O)O)=C(S[C@@H]3CN[C@H](C(=O)N(C)C)C3)[C@H](C)[C@H]12 [Meropenem]
Conditions | fold change of 2-Phenylethylamine concentration, [1] | fold change of Cadaverine concentration, [3] | fold change of Histamine concentration, [2] | fold change of Putrescine concentration, [7] | fold change of Tryptamine concentration, [4] | growth, [5] | growth, [6]
0.6125 µM | 0.912 | 0.982 | 0.953 | 1 | 1.11 | 1.13 | 0.844
1.25 µM | 0.801 | 1.01 | 0.643 | 1.06 | 0.93 | 1.07 | 0.992
2.5 µM | 0.578 | 1 | 0.612 | 0.976 | 0.801 | 1.63 | 0.894
5 µM | 0.185 | 1.06 | 0.462 | 1.01 | 0.259 | 1.88 | 1.4
10 µM | 0.162 | 1.13 | 0.289 | 0.879 | 0.217 | 0.41 | 0.935
20 µM | 0.162 | 1.18 | 0.227 | 0.667 | 0.2 | 0.365 | 0.363

CN1CCN(c2c(F)cc3c(=O)c(C(=O)O)cn4c3c2SCC4)CC1 [Rufloxacin]
Conditions | fold change of 2-Phenylethylamine concentration, [1] | fold change of Cadaverine concentration, [3] | fold change of Histamine concentration, [2] | fold change of Putrescine concentration, [7] | fold change of Tryptamine concentration, [4] | fold change of Tryptamine concentration, [8] | growth, [5] | growth, [6] | growth, [9]
0.6125 µM | 0.871 | 0.967 | 1.1 | 0.99 | 0.989 | 1 | 1.07 | 0.848 | 1.09
1.25 µM | 1.12 | 0.979 | 1.03 | 0.992 | 1.18 | 0.994 | 0.974 | 0.939 | 0.879
2.5 µM | 2.04 | 0.981 | 1.96 | 1.05 | 2.02 | 0.972 | 0.91 | 0.636 | 0.898
5 µM | 1.33 | 1.03 | 0.834 | 1.12 | 1.51 | 0.931 | 0.61 | 0.425 | 1.09
10 µM | 1.22 | 1.09 | 0.211 | 1.19 | 1.24 | 0.674 | 0.593 | 0.466 | 0.742
20 µM | 1.18 | 1.12 | 0.22 | 1.19 | 1.16 | 0.0448 | 0.484 | 0.37 | 0.0686
